Data from patent US10316017B2, “COT modulators and methods of use thereof” (Gilead Sciences, Inc., priority 2015, dated 2019).
Where two headings read alike, the source gives them in different places.

Tests used:
[1] = molecular target: T1, human Cot catalytic domain (30-397 amino acids) (Homo sapiens, UniProt P41279); assay: High Throughput Cot Biochemical Assay (KinEASE TR-FRET); conditions: read-out: IC50 HTRF
T1 construct: Purified recombinant human Cot catalytic domain (30-397 amino acids) was purchased from Cama Biosciences; purchased Cama Biosciences (so in the source)
How it was run: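 Phosphorylation of 1 μM XL665-STK3 peptide by 5 nM Cot catalytic domain was measured by time-resolved FRET using a europium […] antibody. ATP was 400 μM; buffer was 10 mM MOPS pH 7.0 with Mg2+ and DTT.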

[2] = tested on: TNFα production in LPS-stimulated human monocytes; assay: Cot Monocyte TNFα Cell Based Assay; conditions: Homo sapiens, Monocyte, read-out: EC50 TNF
How it was run: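 Percent-of-control values derive from TR-FRET ratios of TNFα in spun-down media, referenced to unstimulated and LPS-stimulated wells. Exposure: 1 h compound preincubation, then 50 pg/ml LPS for 4 h, both at 37 °C, with 0.5% final DMSO.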

[3] = Cot biochemical HTRF (KinEASE TR-FRET) assay
[4] = TNFα in LPS-stimulated human monocytes
[5] = Cot KinEASE TR-FRET, 400 μM ATP
[6] = LPS-stimulated human monocytes, TNFα TR-FRET

T1 sequence (P41279 30-397): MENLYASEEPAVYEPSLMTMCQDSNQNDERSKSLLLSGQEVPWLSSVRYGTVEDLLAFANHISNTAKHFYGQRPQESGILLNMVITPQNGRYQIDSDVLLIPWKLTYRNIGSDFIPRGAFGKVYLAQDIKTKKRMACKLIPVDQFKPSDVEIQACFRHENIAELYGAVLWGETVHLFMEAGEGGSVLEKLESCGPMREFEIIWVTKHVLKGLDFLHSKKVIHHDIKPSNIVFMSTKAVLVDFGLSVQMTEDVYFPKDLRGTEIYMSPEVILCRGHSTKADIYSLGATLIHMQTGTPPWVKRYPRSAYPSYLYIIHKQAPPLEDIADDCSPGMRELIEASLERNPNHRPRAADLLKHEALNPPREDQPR

| Compound | IC50 [1, 3] [µM] | EC50 [2, 4] [µM] | IC50 [1, 5] [µM] | EC50 [2, 6] [µM] |
| --- | --- | --- | --- | --- |
| Cn1cnc(C(Nc2cc(Cl)c3ncc(C#N)c(Nc4ccc(F)c(Cl)c4)c3c2)c2ccc(F)cc2)c1 (centres unmarked) [Example 887, 8-chloro-4-((3-chloro-4-fluorophenyl)amino)-6-(((4-fluorophenyl)(1-methyl-1H-imidazol-4-yl)methyl)amino)quinoline-3-carbonitrile] | 0.07 | 1.89 | – | – |
| CCN1CCC(n2cc(C(Nc3cc(Cl)c4ncc(C#N)c(Nc5ccc(F)c(Cl)c5)c4c3)c3cc(F)c(F)c(F)c3)nn2)CC1 (centres unmarked) [Example 889, 8-chloro-4-((3-chloro-4-fluorophenyl)amino)-6-(((1-(1-ethylpiperidin-4-yl)-1H-1,2,3-triazol-4-yl)(3,4,5-trifluorophenyl)methyl)amino) quinoline-3-carbonitrile] | 0.032 | 0.362 | – | – |
| Cn1cnc(C(Nc2cc(Cl)c3ncc(C#N)c(Nc4ccc(F)c(Cl)c4)c3c2)c2ccc(Cl)cc2)c1 (centres unmarked) [Example 894, 8-chloro-4-((3-chloro-4-fluorophenyl)amino)-6-(((4-chlorophenyl)(1-methyl-1H-imidazol-4-yl)methyl)amino)quinoline-3-carbonitrile] | 0.168 | 1.75 | – | – |
| Cn1cnc(C(Nc2cc(Cl)c3ncc(C#N)c(Nc4ccc(F)c(Cl)c4)c3c2)c2ccccc2)c1 (centres unmarked) [Example 895, 8-chloro-4-((3-chloro-4-fluorophenyl)amino)-6-(((1-methyl-1H-imidazol-4-yl)(phenyl)methyl)amino) quinoline-3-carbonitrile] | 0.056 | 1 | – | – |
| CCN1CCC(n2cc(C(Nc3cc(Cl)c4ncc(C#N)c(Nc5ccc(F)c(Cl)c5)c4c3)c3cccc(F)c3)nn2)CC1 (centres unmarked) [Example 907, 8-chloro-4-((3-chloro-4-fluorophenyl)amino)-6-(((1-(1-ethylpiperidin-4-yl)-1H-1,2,3-triazol-4-yl)(3-fluorophenyl)methyl)amino) quinoline-3-carbonitrile] | 0.005 | 0.128 | – | – |
| CCN1CCC(n2cc([C@H](Nc3cc(Cl)c4ncc(C#N)c(Nc5ccc(F)c(Cl)c5)c4c3)c3ccccc3)nn2)CC1 [Example 918, (R)-8-chloro-4-((3-chloro-4-fluorophenyl)amino)-6-(((1-(1-ethylpiperidin-4-yl)-1H-1,2,3-yl)(phenyl)methyl)amino) quinoline-3-carbonitrile] | – | – | 0.194 | 8.58 |
| [2H][C@](Nc1cc(Cl)c2ncc(C#N)c(N[C@H](CCOC)c3ccccc3)c2c1)(c1ccc(F)cc1)c1cn(C2CC2)nn1 [Example 925, 8-chloro-6-(((1-cyclopropyl-1H-1,2,3-triazol-4-yl)(4-fluorophenyl)methyl-d)amino)-4-(((R)-3-methoxy-1-phenylpropyl)amino)quinoline-3-carbonitrile] | – | – | 0.01 | 0.187 |
| N#Cc1cnc2c(Cl)cc(N[C@@H](c3ccc(F)cc3)c3cn(C4CC4)nn3)cc2c1NCC12CC(C1)C2 [Example 927, (S)-4-((bicyclo[1.1.1]pentan-1-ylmethyl)amino)-8-chloro-6-(((1-cyclopropyl-1H-1,2,3-triazol-4-fluorophenyl)methyl)amino) quinoline-3-carbonitrile] | – | – | 0.034 | 0.576 |
| N#Cc1cnc2c(Cl)cc(N[C@H](c3cn(C4CC4)nn3)c3ccccc3Cl)cc2c1NCC12CC(C1)C2 [Example 928, (S)-4-((bicyclo[1.1.1]pentan-1-ylmethyl)amino)-8-chloro-6-(((2-chlorophenyl)(1-cyclopropyl-1H-1,2,3-triazol-4-yl)methyl)amino)quinoline-3-carbonitrile] | – | – | 0.068 | 0.443 |
| [2H][C@](Nc1cc(Cl)c2ncc(C#N)c(NCC(C)(C)C)c2c1)(c1ccc(Cl)cc1)c1cn(C2CCN(C(C)(C)C)CC2)nn1 [Example 929, (S)-6-(((1-(1-(tert-butyl)piperidin-4-yl)-1H-1,2,3-triazol-4-yl)(4-chlorophenyl)methyl-d)amino)-8-chloro-4-(neopentylamino)quinoline-3-carbonitrile] | – | – | 0.007 | 0.098 |
